Measured values reported in patent publication US20230271938A1, “BENZIMIDAZOLES FOR USE IN THE TREATMENT OF CANCER AND INFLAMMATORY DISEASES” (Capella Therapeutics, Inc., priority 2015, published 2023).

Biological target: T1, ITK (Homo sapiens, UniProt Q08881)
T1 sequence (Q08881 1-620): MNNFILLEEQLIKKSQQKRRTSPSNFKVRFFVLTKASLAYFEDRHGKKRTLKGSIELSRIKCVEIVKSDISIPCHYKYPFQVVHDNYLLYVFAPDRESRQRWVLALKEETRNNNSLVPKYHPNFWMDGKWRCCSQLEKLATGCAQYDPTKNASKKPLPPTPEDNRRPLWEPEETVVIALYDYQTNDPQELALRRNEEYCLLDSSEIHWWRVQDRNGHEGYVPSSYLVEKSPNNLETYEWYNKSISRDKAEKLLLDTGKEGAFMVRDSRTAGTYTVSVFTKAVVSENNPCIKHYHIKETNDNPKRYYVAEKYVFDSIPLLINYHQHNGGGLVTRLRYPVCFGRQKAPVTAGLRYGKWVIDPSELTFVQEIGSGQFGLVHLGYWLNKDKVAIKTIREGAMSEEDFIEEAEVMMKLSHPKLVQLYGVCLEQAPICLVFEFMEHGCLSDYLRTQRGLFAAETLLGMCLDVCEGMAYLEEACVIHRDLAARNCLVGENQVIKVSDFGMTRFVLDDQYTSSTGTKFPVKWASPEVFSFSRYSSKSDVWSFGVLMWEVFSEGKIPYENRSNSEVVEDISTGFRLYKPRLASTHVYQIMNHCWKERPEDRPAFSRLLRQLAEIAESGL
Test: Inhibition of ITK kinase
Format: biochemical
Settings: 1% DMSO
From the text: The Z′-LYTE® biochemical assay is a fluorescence-based, coupled-enzyme assay based on the differential sensitivity of phosphorylated and non-phosphorylated peptides to proteolytic cleavage. A peptide substrate for a kinase is labeled with two fluorophores, one at each end, to form a FRET pair.
In the primary reaction, the kinase transfers the gamma-phosphate of ATP to a single tyrosine, serine, or threonine residue in the synthetic FRET-peptide substrate. In the secondary reaction, a site-specific protease recognizes and cleaves non-phosphorylated FRET-peptides. […] An inhibitory activity of a compound is thus determined from its effect on the cleavage of the synthetic FRET-peptide substrate.
Inhibition of BMX, BTK, ITK, and TXK kinases by a test compound is determined in 50 mM HEPES, pH 7.5, 0.01% BRIJ-35, 10 mM MgCl2, and 1 mM EGTA in the presence of 1% DMSO by volume.
Binding of an ALEXA FLUOR® conjugate or “tracer” to a kinase is detected by addition of a Eu-labeled anti-tag antibody. […] An inhibitory activity of a compound is thus determined from the extent of the FRET signal loss. Inhibition of ITK and TEC kinases by a test compound is determined in the presence of 1% DMSO.
Inhibition of BMX, BTK, PIK3C-D, ITK, TEC, and TXK kinases by compound A2 was measured using one of the assays described in Examples 2A and 3A.

- IC50: ≤ 10 nM
SMILES: C=CC(=O)N1CCCC[C@@H](n2c(NC(=O)c3ccnc(C)c3)nc3cccc(OC4CCN(C(C)=O)CC4)c32)C1 [Compound A2, (R)-N-(7-((1-acetylpiperidin-4-yl)oxy)-1-(1-acryloylazepan-3-yl)-1H-benzo[d]imidazol-2-yl)-2-methylisonicotinamide]
- Inhibition: A (A represents a value no greater than 10 nM or no less than 90% inhibition)
